Here are results for one compound from US4695590A, “Method for retarding aging” (California Health Technologies, priority 1986, dated 1987).

Experiment [1] deals with Uppsala mice. The experiment in a line: Uppsala mice fed lab chow containing 0.5 weight% NDGA, observation of aging and skin wrinkling. It counts as in vivo. From the text: In one aspect of practice of techniques of this invention, the compounds of formula (1) are useful in retarding the aging phenomena of skin wrinkling. In this example, twenty four (24) Uppsala mice were fed standard lab chow (provided by Anticimax of Sodertalje, Sweden) containing 0.5 weight% NDGA ad libitum from the twelfth to thirty-sixth month of their lifespan.
This increased wrinkling is indicative of collagen and elastin hardening and cross-linking via the conversion of imide to amide bonds as discussed above.

Experiment [2] relates to lipid hydroperoxides in the skin. It counts as in vivo, human. The text has this:
FIG. 3 is a graph showing the results of a double blind study set forth in Example 6, wherein a composition containing 2% NDGA by weight was applied topically to the skin of the foreheads of human volunters; and
Turning to FIG. 3, the results of a double-blind time study using a composition containing 2% by weight NDGA can be seen. This composition was the same as the composition set forth in Example 3 with the exception that the percentage of water was reduced to 86.5%. Starting at time zero, 10 milliliters of this cream was vigorously applied topically onto the skin of the forehead of a volunteer. Measurements were taken at different intervals using non-invasive, reflective, near-infrared spectroscopy. The methods of non-invasive, reflective, near infrared spectroscopy used in this example are set forth in detail in R. Lippman, "Rapid in vivo Quantification and Comparision of Hydroperoxides and Oxidized Collagen in Aging Mice, Rabbits and Man", Experimental Gerontology, Vol. 20, pp. 1-5, 1985, which is incorporated herein by this reference.

In experiment [3] the test system is Glial cells from a human brain. The experiment in a line: Cellular ATP production in cultivated glial cells (bioluminescence). To be noted: NDGA 0.5% w/v in culture. In kind it is cell-based. On the procedure:
Glial cells from a human brain were cultivated by monolayering on Petri dishes. Cellular ATP production was measured using bioluminescent methods (luciferin, luciferase and photomultiplier detection).

Experiment [4] deals with Mitochondria from a human liver. Briefly: Chemiluminescent probe of superoxide and hydroxyl radicals in isolated mitochondria. It counts as biochemical. The text has this: Mitrochondria from a human liver were freshly isolated and maintained in a culture environment so that normal respiration and ATP production occurred. Special chemical probes, e.g. luminol-carnitine derivatives, were pipetted into the mitochondria culture media. Uptake of the probes occurred in the mitrochondrial inner membrane where oxygen metabolism and toxic oxygen byproducts are produced. The probes emitted chemiluminescent light in proportion to superoxide (O2^-.) and hydroxyl radicals (.OH). This light was measured by a photomultiplier, and the results were quantified and recorded.

The test system of experiment [5] is microvascular lipid hydroperoxides. Briefly: Pharmacokinetic time-course (double-blind) study of single oral doses of NDGA, microvascular lipid hydroperoxides. It counts as in vivo, human. The procedure: Placebos were given to two (2) other volunteers. Using the above referenced non-invasive technique called reflective, near-infrared spectroscopy, changes in the microvascular concentrations of lipid hydroperoxides were monitored during 8 hour test periods. […] Subjects received single doses of NDGA and placebos orally, respectively.

Where [6] appears, read: isolated human liver mitochondria.

Consider `CC(Cc1ccc(O)c(O)c1)C(C)Cc1ccc(O)c(O)c1` (stereo not drawn) [NDGA, 1,4-bis(3,4-dihydroxyphenyl)-2,3-dimethylbutane], for which the “skin wrinkling, control mice versus NDGA fed mice” value in experiment [1] (0.5 weight% NDGA in chow) was “greater skin wrinkling in control mice versus NDGA fed mice”. Besides, the “visual appearance (youthful and healthy) versus control mice” value in experiment [1] (0.5 weight% NDGA in chow from twelfth month, at 26 months of age) was “visually more youthful and healthy”. Further, the “NDGA fed mice still living” value in experiment [1] (24 mice at start, 0.5 weight% NDGA in chow, one control mouse of 6 remaining) was “four”. In addition, the “facial skin and skin unsaturated lipids, damage” value in experiment [2] (2% by weight NDGA cream topically on forehead) was “facial skin and skin unsaturated lipids are preserved, and damage is prevented”. Further, the “return to normal level of lipid hydroperoxides” value in experiment [2] (2% by weight NDGA cream topically, after approximately 4 hours) turned out to be 190 micromole/cm^2. Besides, the “lipid hydroperoxides in skin layers and microvascularization, level decreased to” value in experiment [2] (2% by weight NDGA cream, 10 milliliters topically on forehead, after about one hour, from about 190) was about 151 micromole/cm^2 skin. In experiment [3], the “steady state ATP production” value is “increase in steady state ATP production was observed”. For the same compound, in experiment [4] (setting [6]), the “lifespan of the human mitochondria” value was “Increased lifespan of the human mitochondria” and the toxic oxygen byproducts result is “significantly reduced toxic oxygen byproducts”. Besides, in experiment [4] (luminol-carnitine derivative probes), the “steady state light (chemiluminescence of superoxide and hydroxyl radicals)” value is “significantly reduced the steady state light”. Further, in experiment [5] (oral, single doses 50, 75, 100 and 200 mg, during the 4 to 8 hour study periods), the “reduction of levels of microvascular lipid hydroperoxides” value is on record as “at least 15%”. For the same compound, the “neutralization of toxic byproducts of oxygen metabolism, i.e. lipid hydroperoxides (conclusion)” value in experiment [5] (when taken at regular intervals of at least 6 hours, 3 times daily) is on record as “effective neutralizer of toxic byproducts of oxygen metabolism”.
